28 compounds from ChEMBL document CHEMBL3739257, “Aryl amide small-molecule inhibitors of microRNA miR-21 function” (Bioorg Med Chem Lett, 2015) can be followed below.

Calls of active or inactive are those of the source. The rule behind the calls is not given here.

For assay [1], the system named is HeLa. As to the kind of experiment: Inhibition of microRNA miR-21 expression in human HeLa cells assessed as reduction of intracellular miR-21 level by measuring luciferase signal relative to control. It counts as cell-based.
Assay [2] in a line: Inhibition of microRNA miR-21 expression in human HeLa cells assessed as luciferase signal at 10 uM after 48 hrs by microplate reader analysis. It is filed as cell-based.
A further assay relates to Lampyridae. As to the kind of experiment: Inhibition of firefly luciferase at 10 uM preincubated for 1 hr followed by ATP addition measured after 3 mins by CellTiter-Glo assay. On the technique in general: ATP-based viability assays read luminescence as a measure of living cells.
For assay [3], the system named is HeLa. Description: Inhibition of microRNA miR-21P transfected in human HeLa cells assessed as luciferase signal at 10 uM. It counts as cell-based.
For assay [4], the system named is HeLa. As to the kind of experiment: Inhibition of primary microRNA miR-21 expression in human HeLa cells assessed as luciferase signal at 10 uM by qRT-PCR analysis relative to control. It is filed as cell-based. On the technique in general: In qPCR the cycle at which signal appears reflects the starting amount.
Assay [5] concerns HeLa. As to the kind of experiment: Inhibition of miR-17-5p expression in human HeLa cells at 10 uM after 48 hrs by qRT-PCR analysis. It counts as functional, cell-based.
The subject of assay [6] is HeLa. Description: Inhibition of miR-222 expression in human HeLa cells at 10 uM after 48 hrs by qRT-PCR analysis. It counts as functional, cell-based.
Assay [7] has as its system HeLa. Description: Inhibition of miR-21 expression in human HeLa cells at 10 uM after 48 hrs by qRT-PCR analysis. It counts as functional.
A further assay deals with Huh-7. Description: Inhibition of microRNA miR-122 expression in human Huh7-psiCHECK cells assessed as luciferase expression at 10 uM after 48 hrs by microplate reader analysis. It counts as cell-based.
The test system of assay [8] is HeLa. As to the kind of experiment: Inhibition of miR-125b expression in human HeLa cells at 10 uM after 48 hrs by qRT-PCR analysis. It is filed as functional, cell-based.
Assay [9] deals with HeLa. As to the kind of experiment: Inhibition of microRNA miR-21 expression in human HeLa cells assessed as luciferase signal at 10 uM after 48 hrs by microplate reader analysis relative to control. It is filed as cell-based.

By EC50 is commonly meant the midpoint of the concentration-response curve. For orientation: inhibition means the change of the read-out against control, counted positive when it falls.

As to `CCCOc1ccc(C(=O)NCCc2ccccc2)cc1`, in the assay with HeLa [1], the fold change (FC) is 1.36.

As to `COc1ccc(C(=O)NCCC2=CCCCC2)cc1O`, in the assay on HeLa [1], the fold change (FC) was determined as 1.63.

Turning to `COc1ccc(C(=O)NCc2ccccc2)cc1`, in the assay with HeLa [1], the fold change (FC) came to 1.43.

Turning to `O=C(NCCC1=CCCCC1)c1ccccc1`, the fold change (FC) with HeLa [1] stood at 1.58.

`COc1ccc(NC(=O)c2ccc(OC)cc2)cc1`: the EC50 in assay [2] came out at 0.86 µM. Further, the inhibition entry in the assay on Lampyridae, with HeLa [3], in the assay with HeLa [4], with HeLa [5], in the assay on HeLa [6] and with Huh-7 was “inactive” in each case. Besides, the inhibition entry in the assay with HeLa [8] was “inactive”. For the same compound, in the assay on HeLa [1], the fold change (FC) is 2.88. Further, the inhibition at 10 µM in the assay with HeLa [7] is 61%. Further, the inhibition in the assay with HeLa [9] was above 100%.

As for `O=C(Nc1ccccc1)c1ccccc1`, in the assay with HeLa [1], the fold change (FC) came to 1.49.

Consider `COc1ccc(C(=O)NCCc2ccccc2)cc1O`, for which the fold change (FC) with HeLa [1] was 0.95.

Take `COc1ccc(C(=O)Nc2ccc3ccccc3c2)cc1`: in the assay with HeLa [1], the fold change (FC) worked out at 1.21. In the assay with Huh-7, the inhibition entry is “inactive”. In addition, the inhibition in the assay with HeLa [9] was above 100%.

With `COc1ccc(C(=O)NCCc2ccccn2)cc1`, the fold change (FC) in the assay on HeLa [1] was determined as 1.

Consider `O=C(NCCC1=CCCCC1)c1cccc(O)c1`, for which, in the assay with HeLa [1], the fold change (FC) came to 1.61.

Take `O=C(NCCC1=CCCCC1)c1ccc(O)cc1`: in the assay on HeLa [1], the fold change (FC) was 1.66.

Regarding `COc1ccc(C(N)=O)cc1`, the fold change (FC) in the assay on HeLa [1] was 1.11.

For the compound `COc1ccc(C(=O)NCCC2=CCCCC2)cc1`, in the assay with HeLa [1], the fold change (FC) turned out to be 1.05.

Turning to `COc1ccc(C(=O)NCCc2ccc3ccccc3c2)cc1`, the fold change (FC) in the assay on HeLa [1] was determined as 1.41.

`COc1ccc(C(=O)NCCCCc2ccccc2)cc1`: the fold change (FC) with HeLa [1] is 1.03.

As to `COc1ccc(C(=O)Nc2ccccc2)cc1`, the EC50 in assay [2] was 2.3 µM. In addition, the inhibition entry in the assay on Lampyridae, with HeLa [3], in the assay on HeLa [4], in the assay with HeLa [5], in the assay with HeLa [6] and in the assay with HeLa [8] was “inactive” each time. In addition, the fold change (FC) in the assay on HeLa [1] came to 2.39. In the assay on HeLa [7], this compound showed an inhibition at 10 µM of 43%.

Consider `CCOc1ccc(C(=O)NCCc2ccccc2)cc1`, for which the fold change (FC) in the assay on HeLa [1] is 1.56.

As for `COc1ccc(C(=O)NCCc2ccccc2)cc1`, the fold change (FC) with HeLa [1] came to 0.5.

For `CCCNC(=O)c1ccc(OC)c(O)c1`, the fold change (FC) with HeLa [1] stood at 1.11.

For the compound `COc1ccc(C(=O)NCCC2=CCCCC2)cc1OC1CCN(C(C)C)CC1`, in the assay on HeLa [1], the fold change (FC) stood at 1.36.

For `O=C(NCCC1=CCCCC1)c1ccc(O)c(O)c1`, in assay [2], the EC50 was determined as 6.1 µM. Moreover, the inhibition entry in the assay on Lampyridae, in the assay with HeLa [3], in the assay on HeLa [4], with HeLa [5], in the assay with HeLa [6] and in the assay with Huh-7 was “inactive” each time. Further, the inhibition result with HeLa [8] is “inactive”. In addition, the fold change (FC) in the assay on HeLa [1] came to 2.22. In the assay with HeLa [7], the inhibition at 10 µM is 42%. In addition, the inhibition in the assay with HeLa [9] was above 100%.

In the case of `C=CCNC(=O)c1ccc(OC)cc1`, the fold change (FC) with HeLa [1] was found to be 1.28.

For the compound `COc1ccc(C(=O)NCCC2=CCCCC2)cc1OC`, the 50% effective concentration (EC50) in assay [2] turned out to be 10.8 µM. In addition, the inhibition entry in the assay with Lampyridae, with HeLa [3], in the assay on HeLa [4], in the assay with HeLa [5], in the assay on HeLa [6] and in the assay with Huh-7 was “inactive” in each case. In the assay on HeLa [8], the inhibition result was “inactive”. The fold change (FC) in the assay on HeLa [1] came out at 2.01. In addition, the inhibition at 10 µM in the assay with HeLa [7] was determined as 17%. For the same compound, the inhibition in the assay on HeLa [9] is above 100%.

For the compound `COc1ccc(C(=O)NCCCc2ccccc2)cc1`, in the assay with HeLa [1], the fold change (FC) is 1.94.

As for `O=C(NCCc1ccccc1)c1ccc(Oc2ccccc2)cc1`, the fold change (FC) in the assay with HeLa [1] turned out to be 1.4.

Turning to `COc1ccc(C(=O)NCCC2=CCCCC2)cc1OC(C)=O`, the fold change (FC) in the assay on HeLa [1] stood at 1.83.

Consider `COc1ccc(C(=O)NCCC2CCCCC2)cc1O`, for which the fold change (FC) with HeLa [1] was 1.93.

For the compound `Nc1ccc(C(=O)NCCc2ccccc2)cc1`, in the assay on HeLa [1], the fold change (FC) was found to be 1.46.
